Assay results reported in patent US9260425B2 (Genetech, Inc., priority 2011, dated 2016).

Molecular target: Pim-1 (Homo sapiens (Human), UniProt P11309)
Assay: Pim kinase binding activity assay (Example 901), PIM-1 enzyme, Caliper microfluidic peptide phosphorylation
Assay type: biochemical
Conditions: 20 pM PIM-1, 10 μM ATP, 1 μM FAM-peptide, 90 minutes at room temperature
Outline: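 PIM-1 at 20 pM phosphorylated 1 μM FAM-labelled Pim peptide with 10 μM ATP in HEPES pH 7.2, MgCl2, Tween 20 and DTT for 90 min at room temperature. EDTA stopped the reaction, and product and substrate were resolved by microfluidic electrophoresis (ex 488/em 530 nm). Ki was derived from substrate conversion.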

Chain of Pim-1 (P11309 whole entry): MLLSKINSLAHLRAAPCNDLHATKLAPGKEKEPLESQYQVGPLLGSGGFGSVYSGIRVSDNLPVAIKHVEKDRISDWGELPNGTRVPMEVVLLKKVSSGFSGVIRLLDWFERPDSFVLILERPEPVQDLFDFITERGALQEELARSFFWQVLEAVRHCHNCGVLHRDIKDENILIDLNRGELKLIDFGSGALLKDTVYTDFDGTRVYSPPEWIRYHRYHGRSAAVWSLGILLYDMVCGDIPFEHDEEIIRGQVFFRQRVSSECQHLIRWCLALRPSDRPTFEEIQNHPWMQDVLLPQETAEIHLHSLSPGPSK

Row | SMILES | Ki [nM]
1 | N[C@@H]1CCN(c2cncc(-c3cc4c(-c5ccccc5F)n[nH]c4cn3)c2)C1 [Example 192, (R)-1-(5-(3-(2-fluorophenyl)-1H-pyrazolo[3,4-c]pyridin-5-yl)pyridin-3-yl)pyrrolidin-3-amine] | 0.511
2 | CN1C(=O)CN(c2cc3c(-c4ccccc4)n[nH]c3cn2)C1=O [Example 355, 3-methyl-1-(3-phenyl-1H-pyrazolo[3,4-c]pyridin-5-yl)imidazolidine-2,4-dione] | 809
3 | N#CCc1n[nH]c2cnc(-c3cn[nH]c3)cc12 [Example 145, 2-(5-(1H-pyrazol-4-yl)-1H-pyrazolo[3,4-c]pyridin-3-yl)acetonitrile] | 324
4 | NCC1CCCCN1c1cccc(-c2n[nH]c3cnc(-c4cccnc4)cc23)n1 (centres unmarked) [Example 324, (1-(6-(5-(pyridin-3-yl)-1H-pyrazolo[3,4-c]pyridin-3-yl)pyridin-2-yl)piperidin-2-yl)methanamine] | 0.296
5 | CCn1cc(-c2cc3c(-c4cccc(N5CCN[C@H](C)C5)n4)n[nH]c3cn2)cn1 [Example 397, (R)-5-(1-ethyl-1H-pyrazol-4-yl)-3-(6-(3-methylpiperazin-1-yl)pyridin-2-yl)-1H-pyrazolo[3,4-c]pyridine] | 0.046
6 | Cn1cc(-c2cc3c(-c4cccc(N5CCNCC5)n4)n[nH]c3cn2)cn1 [Example 234, 5-(1-methyl-1H-pyrazol-4-yl)-3-(6-(piperazin-1-yl)pyridin-2-yl)-1H-pyrazolo[3,4-c]pyridine] | 0.036
7 | Cn1cc(-c2cc3c(-c4cccc(N5CC[C@@H](N)C5)n4)n[nH]c3cn2)cn1 [Example 189, (R)-1-(6-(5-(1-methyl-1H-pyrazol-4-yl)-1H-pyrazolo[3,4-c]pyridin-3-yl)pyridin-2-yl)pyrrolidin-3-amine] | 0.136
8 | Cn1cc(-c2cc3c(-c4ccnc(N5CCCCC5)n4)n[nH]c3cn2)cn1 [Example 360, 5-(1-methyl-1H-pyrazol-4-yl)-3-(2-(piperidin-1-y1)pyrimidin-4-yl)-1H-pyrazolo[3,4-c]pyridine] | 0.366
9 | Cn1cc(-c2cc3c(-c4ccc(Br)c(N5CCC(N)CC5)n4)n[nH]c3cn2)cn1 [Example 392, 1-(3-bromo-6-(5-(1-methyl-1H-pyrazol-4-yl)-1H-pyrazolo[3,4-c]pyridin-3-yl)pyridin-2-yl)piperidin-4-amine] | 0.03
10 | c1cc(-c2n[nH]c3cnc(-c4cncs4)cc23)nc(N2CCNCC2)c1 [Example 359, 5-(3-(6-(piperazin-1-yl)pyridin-2-yl)-1H-pyrazolo[3,4-c]pyridin-5-yl)thiazole] | 0.074
11 | FC(F)(F)c1cncc(-c2cc3c(-c4cccc(N5CCNCC5)n4)n[nH]c3cn2)c1 [Example 467, 3-(6-(piperazin-1-yl)pyridin-2-yl)-5-(5-(trifluoromethyl)pyridin-3-yl)-1H-pyrazolo[3,4-c]pyridine] | 0.093
12 | Cc1ccc(-c2n[nH]c3cnc(-c4cccnc4)cc23)nc1N1CC[C@H](O)C1 [Example 305, (S)-1-(3-methyl-6-(5-(pyridin-3-yl)-1H-pyrazolo[3,4-c]pyridin-3-yl)pyridin-2-yl)pyrrolidin-3-ol] | 0.091
13 | NC1CCCN(c2cncc(-c3cc4c(-c5ccccc5F)n[nH]c4cn3)c2)CC1 (centres unmarked) [Example 166, 1-(5-(3-(2-fluorophenyl)-1H-pyrazolo[3,4-c]pyridin-5-yl)pyridin-3-yl)azepan-4-amine] | 0.574
14 | Cn1cc(-c2cc3c(-c4cccc(NC5CCNCC5)n4)n[nH]c3cn2)cn1 [Example 200, 6-(5-(1-methyl-1H-pyrazol-4-yl)-1H-pyrazolo[3,4-c]pyridin-3-yl)-N-(piperidin-4-yl)pyridin-2-amine] | 0.092
15 | CC(O)c1cncc(-c2cc3c(-c4cccc(N5CCNCC5)n4)n[nH]c3cn2)c1 (centres unmarked) [Example 483, 1-(5-(3-(6-(piperazin-1-yl)pyridin-2-yl)-1H-pyrazolo[3,4-c]pyridin-5-yl)pyridin-3-yl)ethanol] | 0.027
16 | Cn1cc(-c2cc3c(-c4cnn(C)c4)n[nH]c3cn2)cn1 [Example 163, 3,5-bis(1-methyl-1H-pyrazol-4-yl)-1H-pyrazolo[3,4-c]pyridine] | 1.92
17 | CCn1cc(-c2cc3c(-c4cc(C(C)C)ccn4)n[nH]c3cn2)cn1 [Example 507, 5-(1-ethyl-1H-pyrazol-4-yl)-3-(4-isopropylpyridin-2-yl)-1H-pyrazolo[3,4-c]pyridine] | 29.8
18 | Cc1n[nH]c2cnc(-c3cnccc3N3CCC[C@H](N)C3)cc12 [Example 112, (S)-1-(3-(3-methyl-1H-pyrazolo[3,4-c]pyridin-5-yl)pyridin-4-yl)piperidin-3-amine] | 3500
19 | c1cc(-c2n[nH]c3cnc(N4CCOCC4)cc23)nc(N2CCNCC2)c1 [Example 401, 4-(3-(6-(piperazin-1-yl)pyridin-2-yl)-1H-pyrazolo[3,4-c]pyridin-5-yl)morpholine] | 3.29

Row | SMILES | Ki [nM]
20 | NCC1CCN(c2cncc(-c3cc4c(-c5ccccc5F)n[nH]c4cn3)c2)CC1 [Example 167, (1-(5-(3-(2-fluorophenyl)-1H-pyrazolo[3,4-c]pyridin-5-yl)pyridin-3-yl)piperidin-4-yl)methanamine] | 1.71
21 | CN1CCN(c2cc3c(-c4cccc(N5CCNCC5)n4)n[nH]c3cn2)CC1=O [Example 223, 1-methyl-4-(3-(6-(piperazin-1-yl)pyridin-2-yl)-1H-pyrazolo[3,4-c]pyridin-5-yl)piperazin-2-one] | 38.5
22 | O[C@@H]1CCCN(c2nc(-c3n[nH]c4cnc(-c5cccnc5)cc34)ccc2Br)C1 [Example 291, (R)-1-(3-bromo-6-(5-(pyridin-3-yl)-1H-pyrazolo[3,4-c]pyridin-3-yl)pyridin-2-yl)piperidin-3-ol] | 0.261
23 | O=c1cccc(-c2n[nH]c3cnc(-c4cccnc4)cc23)[nH]1 [Example 132, 6-(5-(pyridin-3-yl)-1H-pyrazolo[3,4-c]pyridin-3-yl)pyridin-2(1H)-one] | 130
24 | Cc1n[nH]c2cnc(-c3cncc(F)c3)cc12 [Example 123, 5-(5-fluoropyridin-3-yl)-3-methyl-1H-pyrazolo[3,4-c]pyridine] | 737
25 | NCC1CCN(c2cccc(-c3n[nH]c4cnc(-c5cccnc5)cc34)n2)CC1 [Example 278, (1-(6-(5-(pyridin-3-yl)-1H-pyrazolo[3,4-c]pyridin-3-yl)pyridin-2-yl)piperidin-4-yl)methanamine] | 0.1
26 | CCn1cc(-c2cc3c(-c4cccc(N5CCNCC(CO)C5)n4)n[nH]c3cn2)cn1 (centres unmarked) [Example 511, (1-(6-(5-(1-ethyl-1H-pyrazol-4-yl)-1H-pyrazolo[3,4-c]pyridin-3-yl)pyridin-2-yl)-1,4-diazepan-6-yl)methanol] | 0.016
27 | N[C@@H]1CN(c2cccc(-c3n[nH]c4cnc(-c5cccnc5)cc34)n2)CC[C@H]1F (relative stereo) [Example 453, trans-4-fluoro-1-(6-(5-(pyridin-3-yl)-1H-pyrazolo[3,4-c]pyridin-3-yl)pyridin-2-yl)piperidin-3-amine] | 0.296
28 | CCn1cc(-c2cc3c(-c4cccc(N5CCNCC(F)C5)n4)n[nH]c3cn2)cn1 (centres unmarked) [Example 504, 5-(1-ethyl-1H-pyrazol-4-yl)-3-(6-(6-fluoro-1,4-diazepan-1-yl)pyridin-2-yl)-1H-pyrazolo[3,4-c]pyridine] | 0.076
29 | Cc1ccc(-c2n[nH]c3cnc(-c4cnn(C)c4)cc23)nc1N1CC(N2CCNC(=O)C2)C1 [Example 425, 4-(1-(3-methyl-6-(5-(1-methyl-1H-pyrazol-4-yl)-1H-pyrazolo[3,4-c]pyridin-3-yl)pyridin-2-yl)azetidin-3-yl)piperazin-2-one] | 0.618
30 | OCCN1CCN(c2cccc(-c3n[nH]c4cnc(-c5cccnc5)cc34)n2)CC1 [Example 282, 2-(4-(6-(5-(pyridin-3-yl)-1H-pyrazolo[3,4-c]pyridin-3-yl)pyridin-2-yl)piperazin-1-yl)ethanol] | 0.164
31 | N[C@@H]1CCCN(c2nccc(-c3n[nH]c4cnc(-c5cccnc5)cc34)n2)C1 [Example 300, (R)-1-(4-(5-(pyridin-3-yl)-1H-pyrazolo[3,4-c]pyridin-3-yl)pyrimidin-2-yl)piperidin-3-amine] | 0.07
32 | Fc1ccccc1-c1n[nH]c2cnc(-c3cnccc3OCCC3CCNCC3)cc12 [Example 220, 3-(2-fluorophenyl)-5-(4-(2-(piperidin-4-yl)ethoxy)pyridin-3-yl)-1H-pyrazolo[3,4-c]pyridine] | 0.379
33 | Cn1cc(-c2cc3c(-c4cccc(N5C[C@@H]6C[C@H]5CN6)n4)n[nH]c3cn2)cn1 [Example 216, 3-(6-((1S,4S)-2,5-diazabicyclo[2.2.1]heptan-2-yl)pyridin-2-yl)-5-(1-methyl-1H-pyrazol-4-yl)-1H-pyrazolo[3,4-c]pyridine] | 0.126
34 | NC1CCN(c2cncc(-c3n[nH]c4cnc(-c5cccnc5)cc34)c2)CC1 [Example 158, 1-(5-(5-(pyridin-3-yl)-1H-pyrazolo[3,4-c]pyridin-3-yl)pyridin-3-yl)piperidin-4-amine] | 2.1
35 | Cc1n[nH]c2cnc(-c3cncnc3)cc12 [Example 115, 3-methyl-5-(pyrimidin-5-yl)-1H-pyrazolo[3,4-c]pyridine] | 3500
36 | Cc1ccc(-c2n[nH]c3cnc(-c4cccnc4)cc23)nc1N1CCC(N)CC1 [Example 243, 1-(3-methyl-6-(5-(pyridin-3-yl)-1H-pyrazolo[3,4-c]pyridin-3-yl)pyridin-2-yl)piperidin-4-amine] | 0.049
37 | COc1ccc(F)c(-c2n[nH]c3cnc(-c4cnn(C)c4)cc23)c1 [Example 172, 3-(2-fluoro-5-methoxyphenyl)-5-(1-methyl-1H-pyrazol-4-yl)-1H-pyrazolo[3,4-c]pyridine] | 3.76
38 | CN1CCN(c2cc3c(-c4cnn(C)c4)n[nH]c3cn2)CC1=O [Example 331, 1-methyl-4-(3-(1-methyl-1H-pyrazol-4-yl)-1H-pyrazolo[3,4-c]pyridin-5-yl)piperazin-2-one] | 721
